Measured values from ChEMBL document CHEMBL4765227, “Hit to lead optimization of a series of N-[4-(1,3-benzothiazol-2-yl)phenyl]acetamides as monoacylglycerol lipase inhibitors with potential anticancer activity” (Eur J Med Chem, 2016).

Tests used:
Format in all cases: functional
Details in all cases: read-out: GI
[1] = system: MCF7; assay: Growth inhibition of human MCF7 cells at 10 uM incubated for 48 hrs by sulforhodamine B assay relative to control
[2] = system: HCT-15; assay: Growth inhibition of human HCT-15 cells at 10 uM incubated for 48 hrs by sulforhodamine B assay relative to control
[3] = system: LOX IMVI; assay: Growth inhibition of human LOX IMVI cells at 10 uM incubated for 48 hrs by sulforhodamine B assay relative to control
[4] = system: UACC-257; assay: Growth inhibition of human UACC-257 cells at 10 uM incubated for 48 hrs by sulforhodamine B assay relative to control
[5] = system: RXF 393; assay: Growth inhibition of human RXF 393 cells at 10 uM incubated for 48 hrs by sulforhodamine B assay relative to control
[6] = system: NCI/ADR-RES; assay: Growth inhibition of human NCI/ADR-RES cells at 10 uM incubated for 48 hrs by sulforhodamine B assay relative to control
[7] = system: PC-3; assay: Growth inhibition of human PC-3 cells at 10 uM incubated for 48 hrs by sulforhodamine B assay relative to control
[8] = system: HCT-116; assay: Growth inhibition of human HCT-116 cells at 10 uM incubated for 48 hrs by sulforhodamine B assay relative to control
[9] = system: IGROV-1; assay: Growth inhibition of human IGROV-1 cells at 10 uM incubated for 48 hrs by sulforhodamine B assay relative to control
[10] = system: HCC 2998; assay: Growth inhibition of human HCC 2998 cells at 10 uM incubated for 48 hrs by sulforhodamine B assay relative to control
[11] = system: SF-295; assay: Growth inhibition of human SF-295 cells at 10 uM incubated for 48 hrs by sulforhodamine B assay relative to control
[12] = system: DU-145; assay: Growth inhibition of human DU-145 cells at 10 uM incubated for 48 hrs by sulforhodamine B assay relative to control
[13] = system: SNB-75; assay: Growth inhibition of human SNB-75 cells at 10 uM incubated for 48 hrs by sulforhodamine B assay relative to control
[14] = system: SNB-19; assay: Growth inhibition of human SNB-19 cells at 10 uM incubated for 48 hrs by sulforhodamine B assay relative to control
[15] = system: CCRF-CEM; assay: Growth inhibition of human CCRF-CEM cells at 10 uM incubated for 48 hrs by sulforhodamine B assay relative to control
[16] = system: SK-MEL-5; assay: Growth inhibition of human SK-MEL-5 cells at 10 uM incubated for 48 hrs by sulforhodamine B assay relative to control
[17] = system: TK-10; assay: Growth inhibition of human TK-10 cells at 10 uM incubated for 48 hrs by sulforhodamine B assay relative to control
[18] = system: UACC-62; assay: Growth inhibition of human UACC-62 cells at 10 uM incubated for 48 hrs by sulforhodamine B assay relative to control
[19] = system: K562; assay: Growth inhibition of human K562 cells at 10 uM incubated for 48 hrs by sulforhodamine B assay relative to control
[20] = system: UO-31; assay: Growth inhibition of human UO-31 cells at 10 uM incubated for 48 hrs by sulforhodamine B assay relative to control
[21] = system: M14; assay: Growth inhibition of human M14 cells at 10 uM incubated for 48 hrs by sulforhodamine B assay relative to control
[22] = system: MDA-MB-435; assay: Growth inhibition of human MDA-MB-435 cells at 10 uM incubated for 48 hrs by sulforhodamine B assay relative to control
[23] = system: SK-MEL-28; assay: Growth inhibition of human SK-MEL-28 cells at 10 uM incubated for 48 hrs by sulforhodamine B assay relative to control
[24] = system: MOLT-4; assay: Growth inhibition of human MOLT-4 cells at 10 uM incubated for 48 hrs by sulforhodamine B assay relative to control
[25] = system: SF-268; assay: Growth inhibition of human SF-268 cells at 10 uM incubated for 48 hrs by sulforhodamine B assay relative to control
[26] = system: SF-539; assay: Growth inhibition of human SF-539 cells at 10 uM incubated for 48 hrs by sulforhodamine B assay relative to control
[27] = system: OVCAR-4; assay: Growth inhibition of human OVCAR-4 cells at 10 uM incubated for 48 hrs by sulforhodamine B assay relative to control
[28] = system: NCI-H226; assay: Growth inhibition of human NCI-H226 cells at 10 uM incubated for 48 hrs by sulforhodamine B assay relative to control
[29] = system: BT-549; assay: Growth inhibition of human BT-549 cells at 10 uM incubated for 48 hrs by sulforhodamine B assay relative to control
[30] = system: HL-60(TB); assay: Growth inhibition of human HL-60(TB) cells at 10 uM incubated for 48 hrs by sulforhodamine B assay relative to control
[31] = system: MDA-MB-231; assay: Growth inhibition of human MDA-MB-231 cells at 10 uM incubated for 48 hrs by sulforhodamine B assay relative to control
[32] = system: COLO 205; assay: Growth inhibition of human COLO 205 cells at 10 uM incubated for 48 hrs by sulforhodamine B assay relative to control
[33] = system: OVCAR-8; assay: Growth inhibition of human OVCAR-8 cells at 10 uM incubated for 48 hrs by sulforhodamine B assay relative to control
[34] = system: SN12C; assay: Growth inhibition of human SN12C cells at 10 uM incubated for 48 hrs by sulforhodamine B assay relative to control
[35] = system: OVCAR-3; assay: Growth inhibition of human OVCAR-3 cells at 10 uM incubated for 48 hrs by sulforhodamine B assay relative to control
[36] = system: OVCAR-5; assay: Growth inhibition of human OVCAR-5 cells at 10 uM incubated for 48 hrs by sulforhodamine B assay relative to control
[37] = system: KM12; assay: Growth inhibition of human KM12 cells at 10 uM incubated for 48 hrs by sulforhodamine B assay relative to control
[38] = system: Hs-578T; assay: Growth inhibition of human Hs-578T cells at 10 uM incubated for 48 hrs by sulforhodamine B assay relative to control
[39] = system: MDA-MB-468; assay: Growth inhibition of human MDA-MB-468 cells at 10 uM incubated for 48 hrs by sulforhodamine B assay relative to control
[40] = system: HT-29; assay: Growth inhibition of human HT-29 cells at 10 uM incubated for 48 hrs by sulforhodamine B assay relative to control
[41] = system: HOP-92; assay: Growth inhibition of human HOP-92 cells at 10 uM incubated for 48 hrs by sulforhodamine B assay relative to control
[42] = system: NCI-H522; assay: Growth inhibition of human NCI-H522 cells at 10 uM incubated for 48 hrs by sulforhodamine B assay relative to control
[43] = system: Malme-3M; assay: Growth inhibition of human Malme-3M cells at 10 uM incubated for 48 hrs by sulforhodamine B assay relative to control
[44] = system: NCI-H23; assay: Growth inhibition of human NCI-H23 cells at 10 uM incubated for 48 hrs by sulforhodamine B assay relative to control

O=C(Cn1c2ccccc2c2ccccc21)Nc1ccc(-c2nc3ccccc3s2)cc1
inhibition of growth at 10 µM [1]: 67.4% | inhibition of growth at 10 µM [2]: -0.3% | inhibition of growth at 10 µM [3]: 8.68% | inhibition of growth at 10 µM [4]: -1.24% | inhibition of growth at 10 µM [5]: -10.8% | inhibition of growth at 10 µM [6]: -1.93% | inhibition of growth at 10 µM [7]: -4.16% | inhibition of growth at 10 µM [8]: -7.02% | inhibition of growth at 10 µM [9]: 13.4% | inhibition of growth at 10 µM [10]: 0.28% | inhibition of growth at 10 µM [11]: 3.61% | inhibition of growth at 10 µM [12]: -2.93% | inhibition of growth at 10 µM [13]: 3.22% | inhibition of growth at 10 µM [14]: -4.51% | inhibition of growth at 10 µM [15]: -5.65% | inhibition of growth at 10 µM [16]: 6.47% | inhibition of growth at 10 µM [17]: -1.97% | inhibition of growth at 10 µM [18]: 4.66% | inhibition of growth at 10 µM [19]: 4.71% | inhibition of growth at 10 µM [20]: 12.8% | inhibition of growth at 10 µM [21]: -14% | inhibition of growth at 10 µM [22]: -1.43% | inhibition of growth at 10 µM [23]: -7.99% | inhibition of growth at 10 µM [24]: 5.92% | inhibition of growth at 10 µM [25]: 6.55% | inhibition of growth at 10 µM [26]: 4.12% | inhibition of growth at 10 µM [27]: -2.83% | inhibition of growth at 10 µM [28]: 1.21% | inhibition of growth at 10 µM [29]: -5.6% | inhibition of growth at 10 µM [30]: -3.61% | inhibition of growth at 10 µM [31]: 4.37% | inhibition of growth at 10 µM [32]: -8.95% | inhibition of growth at 10 µM [33]: -2.86% | inhibition of growth at 10 µM [34]: -1.32% | inhibition of growth at 10 µM [35]: -4.48% | inhibition of growth at 10 µM [36]: 0.62% | inhibition of growth at 10 µM [37]: 0.15% | inhibition of growth at 10 µM [38]: -14.2% | inhibition of growth at 10 µM [39]: 83.4% | inhibition of growth at 10 µM [40]: -6.06% | inhibition of growth at 10 µM [41]: -7.01% | inhibition of growth at 10 µM [42]: 3.42% | inhibition of growth at 10 µM [43]: 6.83% | inhibition of growth at 10 µM [44]: 6.54%

O=C(Cn1ccnc1)Nc1ccc(-c2nc3ccccc3s2)cc1
inhibition of growth at 10 µM [1]: 38.7% | inhibition of growth at 10 µM [2]: 13% | inhibition of growth at 10 µM [3]: 26.6% | inhibition of growth at 10 µM [4]: 32.4% | inhibition of growth at 10 µM [5]: -2.19% | inhibition of growth at 10 µM [6]: 11.8% | inhibition of growth at 10 µM [7]: 34.1% | inhibition of growth at 10 µM [8]: 31.9% | inhibition of growth at 10 µM [9]: 31.1% | inhibition of growth at 10 µM [10]: 5.1% | inhibition of growth at 10 µM [11]: 34.5% | inhibition of growth at 10 µM [12]: 18.9% | inhibition of growth at 10 µM [13]: 11.2% | inhibition of growth at 10 µM [14]: 23.6% | inhibition of growth at 10 µM [15]: 30.9% | inhibition of growth at 10 µM [16]: 60.8% | inhibition of growth at 10 µM [17]: 18.2% | inhibition of growth at 10 µM [18]: 17.1% | inhibition of growth at 10 µM [19]: 60.4% | inhibition of growth at 10 µM [20]: 39.6% | inhibition of growth at 10 µM [21]: 5.59% | inhibition of growth at 10 µM [22]: 18.4% | inhibition of growth at 10 µM [23]: -4.87% | inhibition of growth at 10 µM [24]: 31.9% | inhibition of growth at 10 µM [25]: 18.9% | inhibition of growth at 10 µM [26]: 18.7% | inhibition of growth at 10 µM [27]: 65.2% | inhibition of growth at 10 µM [28]: 33.4% | inhibition of growth at 10 µM [29]: 34.9% | inhibition of growth at 10 µM [30]: 22.7% | inhibition of growth at 10 µM [31]: 19.9% | inhibition of growth at 10 µM [32]: 19.2% | inhibition of growth at 10 µM [33]: 19.7% | inhibition of growth at 10 µM [34]: 15.4% | inhibition of growth at 10 µM [35]: 37.8% | inhibition of growth at 10 µM [36]: -3.81% | inhibition of growth at 10 µM [37]: 15.6% | inhibition of growth at 10 µM [38]: 13.1% | inhibition of growth at 10 µM [39]: 99.2% | inhibition of growth at 10 µM [40]: 6.65% | inhibition of growth at 10 µM [41]: 24.2% | inhibition of growth at 10 µM [42]: 25.3% | inhibition of growth at 10 µM [44]: 42.6%
